Measurements as given in ChEMBL document CHEMBL6078703, “Discovery of Novel Thiophene-Based Baloxavir Derivatives as Potent Cap-Dependent Endonuclease Inhibitors for Influenza Treatment” (J Med Chem, 2024).
Activity calls are given as the source filed them. The rule behind the calls is not given here.

How the values were obtained:
[1] = Acute toxicity in CD-1 mouse assessed as abnormal lesions in lungs at 2000 mg/kg, po single dose measured for 2 weeks by macroscopic examination; type: organism-based; details: in vivo, 336 h
[2] = Cytotoxicity against human Huh-7 cells assessed as cell viability measured after 48 hrs by CCK-8 assay; type: toxicity, cell-based
[3] = Acute toxicity in CD-1 mouse assessed as abnormal lesions in kidney at 2000 mg/kg, po single dose measured for 2 weeks by macroscopic examination; type: organism-based; details: in vivo, 336 h
[4] = Acute toxicity in CD-1 mouse assessed as mouse survival at 2000 mg/kg, po single dose measured for 2 weeks; type: organism-based; details: in vivo, 336 h
[5] = Acute toxicity in CD-1 mouse assessed as abnormal lesions in spleen at 2000 mg/kg, po single dose measured for 2 weeks by macroscopic examination; type: organism-based; details: in vivo, 336 h
Influenza A virus [6] = test: In vivo antiviral activity against influenza strain A/WSN/1933 (H1N1) infected in BALB/c mouse assessed as reduction in overall inflammation in lungs at 10 to 20 mg/kg, IG treated 12 hrs after infection measured on 9 dpi by histopathological analysis; type: functional, organism-based; details: dose 10-20 mg/kg, time 9.0 day
Influenza A virus [7] = test: In vivo antiviral activity against influenza strain A/WSN/1933 (H1N1) infected in BALB/c mouse assessed as inhibition of virus-induced inflammatory cytokine TNF-alpha level at 10 to 40 mg/kg, IG treated 12 hrs after infection measured on 9 dpi; type: functional, organism-based; details: dose 10-40 mg/kg, time 9.0 day
Influenza A virus [8] = test: In vivo antiviral activity against influenza strain A/WSN/1933 (H1N1) infected in BALB/c mouse assessed as improvement in septal thickening in lungs at 10 to 20 mg/kg, IG treated 12 hrs after infection measured on 9 dpi by histopathological analysis; type: functional, organism-based; details: dose 10-20 mg/kg, time 9.0 day
[9] = Acute toxicity in CD-1 mouse assessed as clinical signs of toxicity at 2000 mg/kg, po single dose measured for 2 weeks; type: organism-based; details: in vivo, 336 h
Influenza A virus [10] = test: In vivo antiviral activity against influenza strain A/WSN/1933 (H1N1) infected in BALB/c mouse assessed as improvement in alveolar collapse in lungs at 10 to 20 mg/kg, IG treated 12 hrs after infection measured on 9 dpi by histopathological analysis; type: functional, organism-based; details: dose 10-20 mg/kg, time 9.0 day
Influenza A virus [11] = test: In vivo antiviral activity against influenza strain A/WSN/1933 (H1N1) infected in BALB/c mouse assessed as increase in mouse survival at 10 to 40 mg/kg, IG treated 12 hrs after infection measured on 9 dpi; type: functional, organism-based; details: dose 10-40 mg/kg, time 9.0 day
[12] = Acute toxicity in CD-1 mouse assessed as abnormal lesions in intestine at 2000 mg/kg, po single dose measured for 2 weeks by macroscopic examination; type: organism-based; details: in vivo, 336 h
Influenza A virus [13] = test: In vivo antiviral activity against influenza strain A/WSN/1933 (H1N1) infected in BALB/c mouse assessed as inhibition of virus-induced inflammatory cytokine IFNgamma level at 10 to 40 mg/kg, IG treated 12 hrs after infection measured on 9 dpi; type: functional, organism-based; details: dose 10-40 mg/kg, time 9.0 day
Influenza A virus [14] = test: In vivo antiviral activity against influenza strain A/WSN/1933 (H1N1) infected in BALB/c mouse assessed as weight regaining at 10 to 40 mg/kg, IG treated 12 hrs after infection measured on 9 dpi; type: functional, organism-based; details: dose 10-40 mg/kg, time 9.0 day
Influenza A virus [15] = test: In vivo antiviral activity against influenza strain A/WSN/1933 (H1N1) infected in BALB/c mouse assessed as inhibition of virus-induced inflammatory cytokine IL-1beta level at 10 to 40 mg/kg, IG treated 12 hrs after infection measured on 9 dpi; type: functional, organism-based; details: dose 10-40 mg/kg, time 9.0 day
Influenza A virus [16] = test: In vivo antiviral activity against influenza strain A/WSN/1933 (H1N1) infected in BALB/c mouse assessed as improvement in septal thickening in lungs at 20 to 40 mg/kg, IG treated 12 hrs after infection measured on 9 dpi by histopathological analysis; type: functional, organism-based; details: dose 20-40 mg/kg, time 9.0 day
[17] = Cytotoxicity against human 786O cells assessed as cell viability measured after 48 hrs by CCK-8 assay; type: toxicity, cell-based, 786-0
[18] = Cytotoxicity against human HepG2 cells assessed as cell viability measured after 48 hrs by CCK-8 assay; type: toxicity, cell-based
Influenza A virus [19] = test: In vivo antiviral activity against influenza strain A/WSN/1933 (H1N1) infected in BALB/c mouse assessed as improvement in alveolar collapse in lungs at 20 to 40 mg/kg, IG treated 12 hrs after infection measured on 9 dpi by histopathological analysis; type: functional, organism-based; details: dose 20-40 mg/kg, time 9.0 day
[20] = Cytotoxicity against human Hep3B cells assessed as cell viability measured after 48 hrs by CCK-8 assay; type: toxicity, cell-based, Hep 3B2
Influenza A virus [21] = test: In vivo antiviral activity against influenza strain A/WSN/1933 (H1N1) infected in BALB/c mouse assessed as inhibition of virus-induced inflammatory cytokine IL-6 level at 10 to 40 mg/kg, IG treated 12 hrs after infection measured on 9 dpi; type: functional, organism-based; details: dose 10-40 mg/kg, time 9.0 day
[22] = Metabolic stability in mouse liver microsomes assessed as intrinsic clearance measured up to 60 mins by LC-MS/MS analysis; type: ADME, Microsome; details: read-out: CLH
[23] = Metabolic stability in human liver microsomes assessed as half life measured up to 60 mins by LC-MS/MS analysis; type: ADME, Microsome
Mus musculus [24] = test: In vivo inhibition of […] (PA) mRNA expression in H1N1 influenza virus infected in BALB/c mouse at 20 to 40 mg/kg single oral dose by qRT-PCR analysis; type: functional, organism-based; details: dose 20-40 mg/kg
[25] = Selectivity index, ratio of CC50 for dog MDCK cells to EC50 for antiviral activity against influenza strain A/Aichi/ 2/1968 (H3N2) infected in MDCK cells; type: toxicity, cell-based; details: read-out: Selectivity Index
Mus musculus [26] = test: In vivo inhibition of polymerase acid protein (PA) mRNA expression in H1N1 influenza virus infected in BALB/c mouse at 20 to 40 mg/kg single oral dose by qRT-PCR analysis; type: functional, organism-based; details: dose 20-40 mg/kg
[27] = Half life in CD-1 mouse at 15 mg/kg, po measured up to 24 hrs by LC-MS/MS analysis; type: ADME, organism-based; details: in vivo
[28] = AUC (0 to infinity) in CD-1 mouse at 15 mg/kg, po measured up to 24 hrs by LC-MS/MS analysis; type: ADME, organism-based; details: CD-1, mouse, in vivo
Mus musculus [29] = test: In vivo inhibition of […] (PA) protein expression in H1N1 influenza virus infected in BALB/c mouse at 20 to 40 mg/kg single oral dose by Western blot analysis; type: functional, organism-based; details: dose 20-40 mg/kg
[30] = Selectivity index, ratio of CC50 for dog MDCK cells to EC50 for antiviral activity against influenza strain A/WSN/1933 (H1N1) infected in MDCK cells; type: toxicity, cell-based; details: read-out: Selectivity Index
[31] = AUC (0 to infinity) in CD-1 mouse at 1 mg/kg, iv measured up to 24 hrs by LC-MS/MS analysis; type: ADME, organism-based; details: CD-1, mouse, in vivo
Influenza A virus [32] = test: Antiviral activity against influenza strain A/WSN/1933 (H1N1) infected in MDCK cells assessed as reduction of virus-induced cytopathic effect measured after 2 days incubation; type: functional, organism-based; details: 48 h
HEK293T = test: Inhibition of H1N1 influenza virus RdRp extracted for human 293T cells assessed as luminescence signal after 24 hrs incubation by Firefly/Renilla luciferase assay; type: cell-based; details: Influenza A virus, dose 0.625-12.5 nM
[33] = MRT (0 to infinity) in CD-1 mouse at 15 mg/kg, po measured up to 24 hrs by LC-MS/MS analysis; type: ADME, organism-based; details: in vivo
[34] = Cmax in CD-1 mouse at 1 mg/kg, iv measured up to 24 hrs by LC-MS/MS analysis; type: ADME, organism-based; details: in vivo
[35] = Oral bioavailability in CD-1 mouse at 15 mg/kg measured up to 24 hrs by LC-MS/MS analysis; type: ADME, organism-based; details: CD-1, mouse, in vivo
[36] = MRT (0 to infinity) in CD-1 mouse at 1 mg/kg, iv measured up to 24 hrs by LC-MS/MS analysis; type: ADME, organism-based; details: in vivo
[37] = Metabolic stability in mouse liver microsomes assessed as half life measured up to 60 mins by LC-MS/MS analysis; type: ADME, Microsome
[38] = Tmax in CD-1 mouse at 1 mg/kg, iv measured up to 24 hrs by LC-MS/MS analysis; type: ADME, organism-based; details: in vivo
Influenza A virus [39] = test: Antiviral activity against influenza strain A/Aichi/ 2/1968 (H3N2) infected in MDCK cells assessed as reduction of virus-induced cytopathic effect measured after 2 days incubation; type: functional, organism-based; details: 48 h
[40] = Tmax in CD-1 mouse at 15 mg/kg, po measured up to 24 hrs by LC-MS/MS analysis; type: ADME, organism-based; details: in vivo
[41] = Metabolic stability in human liver microsomes assessed as intrinsic clearance measured up to 60 mins by LC-MS/MS analysis; type: ADME, Microsome; details: read-out: CLH
[42] = Cytotoxicity against dog MDCK cells assessed as cell viability measured after 48 hrs by CCK-8 assay; type: toxicity, cell-based, Canis lupus familiaris
[43] = Half life in CD-1 mouse at 1 mg/kg, iv measured up to 24 hrs by LC-MS/MS analysis; type: ADME, organism-based; details: in vivo
Mus musculus [44] = test: In vivo inhibition of polymerase acid protein (PA) protein expression in H1N1 influenza virus infected in BALB/c mouse at 20 to 40 mg/kg single oral dose by Western blot analysis; type: functional, organism-based; details: dose 20-40 mg/kg
[45] = Cmax in CD-1 mouse at 15 mg/kg, po measured up to 24 hrs by LC-MS/MS analysis; type: ADME, organism-based; details: in vivo
Influenza A virus [46] = test: Antiviral activity against influenza virus clinical strain H3N2 (A/Guangdong/2/2023) infected in MDCK cells assessed as reduction of virus-induced cytopathic effect measured after 2 days incubation; type: functional, organism-based; details: 48 h

## COC(=O)OCOc1c2n(ccc1=O)N([C@@H](c1ccc(F)c(F)c1)c1cccs1)[C@@H]1COCCN1C2=O
[1]
  Activity: Non-toxic
[2]
  CC50 at 48 h: 60.1 µM
[3]
  Activity: Non-toxic
[4]
  Activity: Non-toxic
[5]
  Activity: Non-toxic
Influenza A virus [6]
  Activity: Active
Influenza A virus [7]
  Activity: Active
Influenza A virus [8]
  Activity: inactive
[9]
  Activity: Non-toxic
Influenza A virus [10]
  Activity: inactive
Influenza A virus [11]
  Activity: Active
[12]
  Activity: Non-toxic
Influenza A virus [13]
  Activity: Active
Influenza A virus [14]
  Activity: Active; Surviving Animals Gradually Starting Weight Weight Beginning 9 Dpi
Influenza A virus [15]
  Activity: Active
Influenza A virus [16]
  Activity: Active
[17]
  CC50 at 48 h: 29.9 µM
[18]
  CC50 at 48 h: > 50 µM
Influenza A virus [19]
  Activity: Active
[20]
  CC50 at 48 h: > 50 µM
Influenza A virus [21]
  Activity: Active

## O=C1c2c(O)c(=O)ccn2N([C@@H](c2ccc(F)c(F)c2)c2cccs2)[C@@H]2COCCN12
[22]
  CLint scaled: 2.38 mL/min/kg
[23]
  half-life: 12.8 h
[2]
  CC50 at 48 h: 41.6 µM
Mus musculus [24]
  inhibition: Active
[25]
  selectivity ratio: 7180
Mus musculus [26]
  inhibition: Active
[27]
  half-life: 4.3 h
[28]
  AUC(0-inf): 11100 ng·h/mL
Mus musculus [29]
  inhibition: Active
[30]
  selectivity ratio: 18200
[31]
  AUC(0-inf): 1230 ng·h/mL
Influenza A virus [32]
  EC50: 0.00188 µM
HEK293T
  Activity: Dose-dependent-effect
[33]
  MRT inf: 2.77 h
[34]
  Cmax: 940 ng/mL
[35]
  bioavailability: 71.6%
[36]
  MRT inf: 2.98 h
[37]
  half-life: 38.5 h
[38]
  Tmax: 4.8 min
Influenza A virus [39]
  EC50: 0.00477 µM
[40]
  Tmax: 0.42 h
[41]
  CLint scaled: 1.62 mL/min/kg
[17]
  CC50 at 48 h: 13.8 µM
[42]
  CC50 at 48 h: 34.2 µM
[18]
  CC50 at 48 h: > 50 µM
[20]
  CC50 at 48 h: 46.3 µM
[43]
  half-life: 3.43 h
Mus musculus [44]
  inhibition: Active
[45]
  Cmax: 4070 ng/mL
Influenza A virus [46]
  EC50: 0.00249 µM
